The values below come from patent publication US8124623B2, “5-hydroxymethyl-oxazolidin-2-one-derivatives and their uses as antibacterials” (Actelion Pharmaceuticals Ltd., priority 2006, dated 2012).

In brackets after ≈: the same amount, converted by molar mass. Read-outs that look alike come from different tables or passages of the source.

One experiment concerns S. aureus A798. Briefly: MIC, broth microdilution (NCCLS). The note with it: for MIC: Staphylococcus aureus. It counts as cell-based. The protocol: These assays have been performed following the description given in “Methods for dilution Antimicrobial Susceptibility Tests for Bacteria that Grow Aerobically, 4th ed.; Approved standard: NCCLS Document M7-A4; National Committee for Clinical Laboratory Standards Villanova, Pa., USA, 1997”. Minimal inhibitory concentrations (MICs; mg/l) were determined in cation-adjusted Mueller-Hinton Broth (BBL) by a microdilution method following NCCLS guidelines (National Committee for Clinical Laboratory Standards. Methods for Dilution Antimicrobial Susceptibility). The pH1 of the test medium was 7.2-7.3. In the particular case wherein the compound to be tested is a compound of formula IPDc wherein at least one of R^1 and R^2 represents OPO3H2, then the test was carried out in the presence of human alkaline phosphatase (concentration: 1 U/mL). In the particular case wherein the compound to be tested is a compound of formula IPDG wherein R^1 represents a group OCOR^5, then the test may be carried out in the presence of 50% human serum.
In general terms: Broth dilution looks for growth in wells or tubes with falling amounts of substance.

The test system of another experiment is M. catarrhalis A894. The experiment can be described thus: MIC, broth microdilution (NCCLS). Format: cell-based.
Experiment [1] relates to 209 diverse clinical isolates of C. difficile. The experiment can be described thus: MIC, CLSI agar dilution, clinical isolates. The following applies: Clostridioides difficile, 209 clinical isolates of C. difficile. Format: cell-based, Clostridium difficile. A general note: Agar dilution tests growth on a series of plates holding different concentrations.
For experiment [2], the system named is C. difficile strain NC13366. It counts as cell-based.
A further experiment deals with S. Pneumoniae 49619. Briefly: MIC, broth microdilution (NCCLS). It counts as cell-based. The protocol:
(§1) These assays have been performed following the description given in “Methods for dilution Antimicrobial Susceptibility Tests for Bacteria that Grow Aerobically, 4th ed.; Approved standard: NCCLS Document M7-A4; National Committee for Clinical Laboratory Standards Villanova, Pa., USA, 1997”. Minimal inhibitory concentrations (MICs; mg/l) were determined in cation-adjusted Mueller-Hinton Broth (BBL) by a microdilution method following NCCLS guidelines (National Committee for Clinical Laboratory Standards. Methods for Dilution Antimicrobial Susceptibility). The pH1 of the test medium was 7.2-7.3.

In a further experiment the test system is E. faecalis 29212. Briefly: MIC, broth microdilution (NCCLS). The following applies: Enterococcus faecalis, read-out: MIC against E. faecalis 29212. It counts as cell-based. As for the experimental part:
as §1

The mark [3] stands for this setting: A798, read-out: MIC S. aureus A798.
Setting [4] is: A798, in the absence of human serum, read-out: MIC against S. aureus A798.
The mark [5] stands for this setting: A798, in the presence of human alkaline phosphatase (1 U/mL), read-out: MIC against S. aureus A798.
The mark [6] stands for this setting: A798, phosphatase absent, read-out: MIC against S. aureus A798.

In general, MIC refers to the least concentration at which growth counts as inhibited. One may read the MIC90 as an inhibitory concentration at the 90% level, which refers to growth in some studies and to a panel of isolates in others.

On to `O=C(O)c1cn(C2CC2)c2cc(N3CCC(COc4ccc(N5C[C@H](CO)OC5=O)cc4F)C3)c(F)cc2c1=O` (mixture of isomers) [Example 8, 1-cyclopropyl-6-fluoro-7-{(RS)-3-[2-fluoro-4-((R)-5-hydroxymethyl-2-oxo-oxazolidin-3-yl)-phenoxymethyl]-pyrrolidin-1-yl}-4-oxo-1,4-dihydro-quinoline-3-carboxylic acid], for which the minimum inhibitory concentration (MIC) in the experiment on S. aureus A798 (setting [3]) worked out at 0.125 µg/mL.
Turning to `O=C(O)c1c[nH]c2nc(N3CCC(O)(COc4ccc(N5C[C@H](CO)OC5=O)cc4F)CC3)c(F)cc2c1=O` [Example 14, 6-fluoro-7-{4-[2-fluoro-4-((R)-5-hydroxymethyl-2-oxo-oxazolidin-3-yl)-phenoxymethyl]-4-hydroxy-piperidin-1-yl}-4-oxo-1,4-dihydro-[1,8]naphthyridine-3-carboxylic acid], in the experiment with S. aureus A798 (setting [3]), the minimal inhibitory concentration (MIC) was 4 µg/mL (≈ 7.32 µM).
On to `C[C@H](N)C(=O)OC[C@H]1CN(c2ccc(OCC3(O)CCN(c4cc5c(cc4F)c(=O)c(C(=O)O)cn5C4CC4)CC3)c(F)c2)C(=O)O1.Cl` [Example 4, 7-(4-{-4-[(R)-5-((S)-2-amino-propionyloxymethyl)-2-oxo-oxazolidin-3-yl]-2-fluoro-phenoxymethyl}-4-hydroxy-piperidin-1-yl)-1-cyclopropyl-6-fluoro-4-oxo-1,4-dihydro-quinoline-3-carboxylic acid hydrochloride], for which the minimum inhibitory concentration (MIC) in the experiment with S. aureus A798 (setting [4]) came to 0.5 µg/mL.
As to `O=C(O)c1cn(C2CC2)c2cc(N3CCC(O)(COc4ccc(N5C[C@H](COP(=O)(O)O)OC5=O)cc4F)CC3)c(F)cc2c1=O` [Example 5, 1-cyclopropyl-6-fluoro-7-{4-[2-fluoro-4-((R)-2-oxo-5-phosphonooxymethyl-oxazolidin-3-yl)-phenoxymethyl]-4-hydroxy-piperidin-1-yl}-4-oxo-1,4-dihydro-quinoline-3-carboxylic acid], the MIC with S. aureus A798 (setting [5]) was 0.25 µg/mL; in the experiment with S. aureus A798 (setting [6]), greater than 16 µg/mL.
For the molecule `COc1c(N2CCC(COc3ccc(N4C[C@H](CO)OC4=O)cc3F)C2)c(F)cc2c(=O)c(C(=O)O)cn(C3CC3)c12` (mixture of isomers) [Example 9, 1-cyclopropyl-6-fluoro-7-{(RS)-3-[2-fluoro-4-((R)-5-hydroxymethyl-2-oxo-oxazolidin-3-yl)-phenoxymethyl]-pyrrolidin-1-yl}-8-methoxy-4-oxo-1,4-dihydro-quinoline-3-carboxylic acid], the MIC with S. aureus A798 (setting [3]) was 1 µg/mL.
With `O=C(O)c1cn(C2CC2)c2nc(N3CCC(O)(COc4ccc(N5C[C@H](CO)OC5=O)cc4F)CC3)c(F)cc2c1=O` [Example 3, 1-cyclopropyl-6-fluoro-7-[4-[2-fluoro-4-((R)-5-hydroxymethyl-2-oxo-oxazolidin-3-yl)-phenoxymethyl]-4-hydroxy-piperidin-1-yl]-4-oxo-1,4-dihydro-[1,8]naphthyridine-3-carboxylic acid], the MIC with S. aureus A798 (setting [3]) was 0.25 µg/mL (≈ 0.426 µM); in the experiment on M. catarrhalis A894 (Moraxella catarrhalis, A894), 0.5 µg/mL (≈ 0.852 µM).
As to `Cc1ncc([N+](=O)[O-])n1CCO` [metronidazole], in experiment [1], the MIC90 amounted to 1 µg/mL (≈ 5.84 µM). Moreover, the “de novo toxin A production in supernatants” value in experiment [2] (1 and 8 μg/mL, day 5 vs day 1, high density stationary phase cultures) was “did not inhibit toxin A production under these conditions or did so only weakly”.
For `C[C@H](N)C(=O)OC[C@H]1CN(c2ccc(OCC3CCN(c4cc5c(cc4F)c(=O)c(C(=O)O)cn5C4CC4)CC3)c(F)c2)C(=O)O1.Cl` [Example 12, 7-(4-{4-[(R)-5-((S)-2-amino-propionyloxymethyl)-2-oxo-oxazolidin-3-yl]-2-fluoro-phenoxymethyl}-piperidin-1-yl)-1-cyclopropyl-6-fluoro-4-oxo-1,4-dihydro-quinoline-3-carboxylic acid hydrochloride], the MIC with S. aureus A798 (setting [4]) is 0.5 µg/mL.
As for `O=C(O)c1cn(C2CC2)c2cc(N3CCC(COc4ccc(N5C[C@H](CO)OC5=O)cc4F)(OP(=O)(O)O)CC3)c(F)cc2c1=O` [Example 10, 1-cyclopropyl-6-fluoro-7-{4-[2-fluoro-4-((R)-5-hydroxymethyl-2-oxo-oxazolidin-3-yl)-phenoxymethyl]-4-phosphonooxy-piperidin-1-yl}-4-oxo-1,4-dihydro-quinoline-3-carboxylic acid], the MIC in the experiment with S. aureus A798 (setting [5]) turned out to be 0.5 µg/mL; in the experiment with S. aureus A798 (setting [6]), 16 µg/mL (≈ 24 µM).
Regarding `COc1c(N2CCC(O)(COc3ccc(N4C[C@H](CO)OC4=O)cc3F)C2)c(F)cc2c(=O)c(C(=O)O)cn(C3CC3)c12` (mixture of isomers) [Example 7, 1-cyclopropyl-6-fluoro-7-{(RS)-3-[2-fluoro-4-((R)—S-hydroxymethyl-2-oxo-oxazolidin-3-yl)-phenoxymethyl]-3-hydroxy-pyrrolidin-1-yl}-8-methoxy-4-oxo-1,4-dihydro-quinoline-3-carboxylic acid], the “MIC S. aureus A798” value with S. aureus A798 stood at 1 µg/mL (≈ 1.66 µM). In addition, the “MIC M. catarrhalis A894” value with M. catarrhalis A894 worked out at 0.063 µg/mL (≈ 0.105 µM). For the same molecule, in the experiment on S. Pneumoniae 49619, the “MIC S. Pneumoniae 49619” value is 0.25 µg/mL (≈ 0.416 µM).
Consider `CCn1cc(C(=O)O)c(=O)c2cc(F)c(N3CCC(COc4ccc(N5C[C@H](CO)OC5=O)cc4F)CC3)cc21` [Example 11, 1-ethyl-6-fluoro-7-{4-[2-fluoro-4-((R)-5-hydroxymethyl-2-oxo-oxazolidin-3-yl)-phenoxymethyl]-piperidin-1-yl}-4-oxo-1,4-dihydro-quinoline-3-carboxylic acid], for which the MIC in the experiment on S. aureus A798 (setting [3]) is greater than 16 µg/mL; in the experiment on E. faecalis 29212, 8 µg/mL (≈ 14.3 µM).
Take `O=C(O)c1c[nH]c2cc(N3CCC(O)(COc4ccc(N5C[C@H](CO)OC5=O)cc4F)CC3)c(F)cc2c1=O` [Example 13, 6-fluoro-7-{4-[2-fluoro-4-((R)-5-hydroxymethyl-2-oxo-oxazolidin-3-yl)-phenoxymethyl]-4-hydroxy-piperidin-1-yl}-4-oxo-1,4-dihydro-quinoline-3-carboxylic acid]: in the experiment on S. aureus A798 (setting [3]), the minimum inhibitory concentration (MIC) was found to be 2 µg/mL (≈ 3.67 µM).
Regarding `O=C(O)c1cn(C2CC2)c2cc(N3CCC(COc4ccc(N5C[C@H](CO)OC5=O)cc4F)CC3)c(F)cc2c1=O` [Example 2, 1-cyclopropyl-6-fluoro-7-{4-[2-fluoro-4-((R)-5-hydroxymethyl-2-oxo-oxazolidin-3-yl)-phenoxymethyl]-piperidin-1-yl}-4-oxo-1,4-dihydro-quinoline-3-carboxylic acid], the MIC with S. aureus A798 (setting [3]) is 0.25 µg/mL (≈ 0.439 µM).
`CN[C@H](CC(C)C)C(=O)N[C@H]1C(=O)N[C@@H](CC(N)=O)C(=O)N[C@H]2C(=O)N[C@H]3C(=O)N[C@H](C(=O)N[C@H](C(=O)O)c4cc(O)cc(O)c4-c4cc3ccc4O)[C@H](O)c3ccc(c(Cl)c3)Oc3cc2cc(c3O[C@@H]2O[C@H](CO)[C@@H](O)[C@H](O)[C@H]2O[C@H]2C[C@](C)(N)[C@H](O)[C@H](C)O2)Oc2ccc(cc2Cl)[C@H]1O` [vancomycin]: the “de novo toxin A production in supernatants” value in experiment [2] is recorded as “did not inhibit toxin A production under these conditions or did so only weakly”.
